Values quoted from earlier work, collected in patent US20090061517A1, “Cell culture apparatus and methods of making and using same” (priority 2007, published 2009).

Settings: in humans

Row | Compound | idiosyncratic hepatotoxicity / idiosyncratic adverse drug reactions
1 | C[C@H]1COc2c(N3CCN(C)CC3)c(F)cc3c(=O)c(C(=O)O)cn1c23 [levofloxacin] | without liability for causing idiosyncratic adverse drug reactions
2 | N[C@@H]1[C@H]2CN(c3nc4c(cc3F)c(=O)c(C(=O)O)cn4-c3ccc(F)cc3F)C[C@@H]12 [trovafloxacin] | linked to idiosyncratic hepatotoxicity in humans
